# Tests used:
# PAMPA—GIT = type: in vitro ADME; conditions: for Papp: PAMPA, read-out: Pe. Exp. GIT
# Protocol: To obtain information on the permeability potential of LASSBio-2208 on cell membranes, this derivative was tested using the parallel artificial membrane permeability assay (PAMPA) that is used as an in vitro model of passive diffusion and transcellular permeation. In this model, the permeability across two artificial membranes is measured: brain lipid from pig extract in dodecane (called PAMPA—BBB) and L-α soy phosphatidylcholine in dodecane (called PAMPA—TGI).
# To perform the permeability assay we used a donor plate where the compounds (tests or controls) are diluted in a buffered medium, characterized by the presence of a synthetic membrane of polyvinylidene fluoride (PVDF) impregnated with a lipid solution, forming a barrier through which the compounds migrate through a diffusion process to the lower plate called the receptor.
# The lipid mixture that impregnates the filter has a different constitution for the permeability tests for the blood–brain barrier (brain lipid from pig extract in dodecane) and gastrointestinal tract (L-α soy phosphatidylcholine in dodecane). In the PAMPA—BBB and PAMPA—GIT assays, the optical density values obtained in the reading at each selected wavelength, for each of the compounds were analysed in comparison with the values of several controls. In the case of the BBB, these values were used to elaborate an equation and determine the permeability coefficient (Pe), using a previously elaborated spreadsheet, and, for the PAMPA—GIT, these values were used to determine the absorbed fraction (Fa%), both using the Excel program. The permeability result for PAMPA—GIT classifies the compounds according to the percentage of absorbed fraction (Fa%), as follows: high intestinal permeability (70–100%), medium permeability (30–69%) or low permeability (0–29%), and the samples were diluted from a stock solution of 10 mM. The PAMPA—BBB model classifies the compounds only as follows: permeable (CNS+) or non-permeable (CNS−) and the assays were made from a stock solution of 1 mg for each compound [25, 40, 41, 42].
# [1] = Non-specific microsome protein binding; type: in vitro ADME; conditions: for fraction unbound at 60 min, 8.3 µM: rat, pH 7.4, liver microsomes 0.5 mg protein/mL, 37 °C, read-out: Percentage of ƒu(mic) (unbound fraction in nonspecific microsomal binding)
# Protocol: Once such bonds are formed, the bound fraction would become incapable of being metabolized.
# Liver microsomes were diluted with PBS pH 7.4 to a concentration of 0.5 mg protein/mL and 3 µL at 1 mM of the working test compound and solutions were mixed with 357 µL of liver microsome suspension. After mixing, duplicate 200 µL aliquots were immediately removed, while another microtubule acted as the control sample (T 0 h), and were quenched with 400 µL of cold acetonitrile containing analytical internal standards. The other samples were incubated at 37 °C at 100 rpm, for 60 min with the same subsequent treatment.
# [2] = tested on: human leukaemia cell line (CCRF-CEM); test: MTT cell viability assay, CCRF-CEM
# Protocol: After the incubation time, the plate was centrifuged (Universal centrifuge 320R Hettich, Kirchlengern, Germany) at 440× g, 10 min and 4 °C, then 110 µL of supernatant was removed and 10 µL of MTT solution was added and left to incubate for 3.5 h in the oven at 37 °C and 5% CO2. […] The CC50 was calculated using the GraphPad Prism 9.0 program. Each sample was tested in triplicate in three independent experiments (N3) [32, 33].
# MOLT-4 = test: SRB cell viability/antiproliferative assay, MOLT-4; conditions: Homo sapiens, MOLT-4, 48 h
# PI3Kα = conditions: cited from earlier work
# PI3Kβ = conditions: cited from earlier work
# PI3Kδ = conditions: cited from earlier work
# PI3Kγ = conditions: cited from earlier work
# mTOR = conditions: cited from earlier work
# [3] = design: method as in PMID 32022441; conditions: cited from earlier work
# [4] = design: method as in PMID 32022441; conditions: cited from earlier work; remark: listed apart in the source
# [5] = tested on: PC3 prostate carcinoma cell line; design: method as in PMID 33919077; conditions: cited from earlier work
# [6] = tested on: PC3 prostate carcinoma cell line; design: method as in PMID 33919077; conditions: PC3, flow cytometry, 24 h assay; cited from earlier work
structure (smiles),measurement,setting,value
CN(C)c1ccc(C(=O)N/N=C/c2ccc(C(=O)NO)cc2)cc1 [LASSBio-1911],Fraction Absorbed,PAMPA—GIT,20.15%
same,Pe. Exp. GIT,PAMPA—GIT,0.592 10^−6 cm/s
same,Papp,PAMPA—GIT,0.359 ×10⁻⁶ cm/s
same,"fraction unbound at 60 min, 8.3 µM",[1],0.004
same,CC50,[2]; 24 h,9.69 µM
same,Emax,[2]; 24 h,98%
same,CC50,[2]; 48 h,6.98 µM
same,Emax,[2]; 48 h,98.8%
same,CC50,[2]; 72 h,6.92 µM
same,Emax,[2]; 72 h,97.1%
same,CC50,MOLT-4,53.1 µM
same,Emax,MOLT-4,61%
O=C(NO)c1ccc(/C=N/NC(=O)c2cc(N3CCOCC3)nc(-c3cccc(O)c3)n2)cc1 [LASSBio-2208],Fraction Absorbed,PAMPA—GIT,13.78%
same,Papp,PAMPA—GIT,0.39 ×10⁻⁶ cm/s
same,unbound in nonspecific microsomal binding,[1]; liver microsomes,more than 93%
same,"fraction unbound at 60 min, 8.3 µM",[1],0.937
same,IC50,PI3Kα,0.0463 µM
same,IC50,PI3Kβ,0.0728 µM
same,IC50,PI3Kδ,0.0724 µM
same,IC50,PI3Kγ,1.3 µM
same,IC50,mTOR,0.464 µM
same,aqueous solubility (thermodynamic solubility),[3],1.81 µM
same,calculated logP,[4],1.96
same,reduction of cell viability,"[5]; PC3, MTT 24 h, highest concentration studied (5 µM)",~50%
same,effect on cell viability,"[5]; PC3, MTT 48 h, 0.01–5 µM",no effect on cell viability
same,cell cycle effect,[6],cell cycle arrest in the G2/M phase
same,"initial cell apoptosis, share of cell population",[6],60–66%
same,CC50,[2]; 24 h,27.8 µM
same,Emax,[2]; 24 h,69.4%
same,CC50,[2]; 48 h,8.68 µM
same,Emax,[2]; 48 h,91.7%
same,CC50,[2]; 72 h,8.54 µM
same,Emax,[2]; 72 h,90.4%
same,CC50,MOLT-4,> 100 µM
